According to the NIST ThermoML archive (doi:10.1021/je900260g):

Assay: mn = molality of the nth substance listed, in mol/kg
Details: 101 kPa, Liquid

NC(CO)(CO)CO [2-amino-2-(hydroxymethyl)-1,3-propanediol] + O
mass density [kg/m3]
Details | m1 = 1.667 | m1 = 2.294 | m1 = 2.945 | m1 = 3.66 | m1 = 4.271 | m1 = 4.908 | m1 = 5.586
298.15 K | 1043.81 | 1053.88 | 1065.01 | 1077.08 | 1086.34 | 1098.03 | 1106.97
303.15 K | 1042.04 | 1052.01 | 1063.04 | 1075.01 | 1084.19 | 1095.81 | 1104.68
310.15 K | 1039.3 | 1049.14 | 1060.05 | 1071.88 | 1080.98 | 1092.51 | 1101.29
318.15 K | 1035.79 | 1045.51 | 1056.29 | 1068.02 | 1077.02 | 1088.46 | 1097.18
323.15 K | 1033.4 | 1043.01 | 1053.79 | 1065.43 | 1074.4 | 1085.8 | 1094.46
328.15 K | 1030.82 | 1039.97 | 1051.16 | 1062.67 | 1071.63 | 1083.04 | 1091.67

O=S(=O)(O)CCCCNC(CO)(CO)CO [N-tris(Hydroxymethyl)methyl-4-aminobutanesulfonic acid] + O
mass density [kg/m3]
Details | m1 = 0.9378 | m1 = 1.552 | m1 = 2.487 | m1 = 4.08 | m1 = 4.796 | m1 = 5.154 | m1 = 5.549
298.15 K | 1067.23 | 1100.73 | 1143.55 | 1200.45 | 1218.48 | 1228.57 | 1235.88
303.15 K | 1065.48 | 1098.86 | 1141.42 | 1198.12 | 1216.1 | 1226.17 | 1233.46
310.15 K | 1062.76 | 1095.93 | 1138.29 | 1194.76 | 1212.71 | 1222.74 | 1229.98
318.15 K | 1059.29 | 1092.31 | 1134.48 | 1190.76 | 1208.68 | 1218.68 | 1225.89
323.15 K | 1056.9 | 1089.87 | 1131.99 | 1188.17 | 1206.07 | 1216.06 | 1223.25
328.15 K | 1054.08 | 1086.99 | 1129.4 | 1185.52 | 1203.41 | 1213.41 | 1220.58
